Measured values published in patent publication US10167299B2, “1-(3-aminopropyl) substituted cyclic amine compounds, preparation method therefor, and pharmaceutical compositions and uses thereof” (SHANGHAI INSTITUTE OF MATERIA MEDICA, CHINESE ACADEMY OF …, priority 2013, dated 2019).

Experiments:
[1] = Four days subacute toxicity test of rats; assay type: in vivo; settings: SD rats; for Clinical observations, clinical pathology detection (hematology and serum biochemistry) and macroscopic morphological observation / weight gain compared with vehicle control group: gavage 4 days, 100 and 1000 mg/kg; for weight gain compared with vehicle control group: some male and female animals; for NOAEL at 4 days: both sexes, rat, in vivo, po, gavage for 4 days, read-out: No Observed Adverse Effect Level (NOAEL)
Description: After compounds 18 and 22 of the present invention were administrated to SD rats through gavage for 4 consecutive days, the toxic reaction was preliminarily assessed to confirm the possible target organ of toxic reaction.
One vehicle control group was set. Each group contained four rats including two male rats and two female rats. During the experiment stage, the animals were daily clinically observated. The body weight was regularly measured. On the 5th day, all animals were subject to pathological examination and gross anatomy.

[2] = tested on: Salmonella typhimurium strain TA100; test: Bacterial reverse mutation assay TA100 (-S9); assay type: cell-based; settings: for mutagenic effect on Salmonella typhimurium strain TA100: -S9, 1-5000 μg/dish
Procedure: (§1) The mutagenic effects of compounds 18 and 22 of the present invention on Salmonella typhimurium strains TA98 and TA100 in non-metabolic activation (-S9) condition were determined. Two strains, TA98 and TA100 were chosen in bacterial reverse mutation assay for compounds 18 and 22. 9 doses containing […], negative and positive controls were set in experiments. 3 dishes were used for each dose. The experiment was carried out under -S9 condition.

[3] = tested on: Salmonella typhimurium strain TA98; test: Bacterial reverse mutation assay TA98 (-S9); assay type: cell-based; settings: for mutagenic effect on Salmonella typhimurium strain TA98: -S9, 1-5000 μg/dish
Procedure: as §1

[4] = Pharmacokinetic experiment on Beagles
Procedure: The administration volume was 2 mL/kg and 1 mL/kg, respectively. The compound was suspended in 20% PEG400 (4:96) for gavage and formulated in DMSO/Tween 80/physiological saline (5:1:94, v/v/v) for intravenous injection. […] 2 h after dosing, all of Beagles ate together.
At above time points, 0.6 ml venous blood was taken from limb venous and loaded into EDTA-2K anticoagulative tube. After centrifuged at 11000 rpm for 5 mm, the plasma was separated and frozen at −20° C. in a refrigerator.
(§3) The pharmacokinetic parameters after administration were calculated by using non-compartment model of WinNonlin 5.3 software (Pharsight Corporation, USA).

HOS-CD4-CCR5 cells = test: Toxicity test of compounds on HOS-CD4-CCR5 cells (MTT); assay type: cell-based; settings: HOS-CD4+-CCR5 cells (Table 8)
Procedure, shortened: (§2)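 Six-point 5-fold dilutions of compound in 10% FBS RPMI-1640 or DMEM, in triplicate, with HOS-CD4-CCR5 cells (4×10^5/ml) for 3 days or PHA-stimulated PBMC (5×10^6/ml) for 7 days, fed on day 3, at 37 °C, 5% CO2. Viability by MTT, OD 570 nm, reference 630 nm.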

[5] = Pharmacokinetic experiment of rats; settings: for AUC(0-t) / AUC(0-inf) / Cmax / MRT / Tmax / bioavailability: male, rat, plasma
Procedure: The administration volume was 10 mL/kg and drug was formulated with DMSO/Tween 80/physiological saline (5:5:90, v/v/v). […] 2 h after dosing, the rats ate together.
At above time points, 0.3 ml of venous blood was taken from retrobulbar venous plexus of the rat and loaded into EDTA-2K anticoagulative tube. After centrifuged at 11000 rpm for 5 mm, the plasma was separated and frozen at −20° C. in a refrigerator.
The concentration of each compound in rat plasma was determined by LC/MS/MS.
as §3

PBMC cells = test: Toxicity test of compounds on PBMC cells (MTT); assay type: cell-based
Procedure, shortened: as §2

[6] = male, beagle, dog, plasma, iv, 3 mg/kg
[7] = male, beagle, dog, plasma, po, 15 mg/kg

Cc1nnc(C(C)C)n1C1CC2CCC(C1)N2CC[C@H](NC(=O)C1CCCC1)c1cccs1 (stereo partly drawn) [Compound 18, N-[(1S)-3-[exo-3-(3-isopropyl-5-methyl-4H-1,2,4-triazol-4-yl)-8-azabicyclo[3.2.1]octane-8-yl]-1-(thiophen-2-yl)propyl]cyclopentane-1-carboxamide]
Clinical observations, clinical pathology detection (hematology and serum biochemistry) and macroscopic morphological observation [1]: no significant drug-related changes | weight gain compared with vehicle control group [1]: increased slowly or exhibited negative growth | NOAEL at 4 days [1]: 1000 mg/kg | mutagenic effect on Salmonella typhimurium strain TA100 [2]: no mutagenic effect | number of revertant colonies (Mean ± SD) ([2]; TA100, -S9, 1 μg/dish): 116 ± 9.0 | number of revertant colonies (Mean ± SD) ([2]; TA100, -S9, 3 μg/dish): 96 ± 10.0 | number of revertant colonies (Mean ± SD) ([2]; TA100, -S9, 10 μg/dish): 95 ± 13.1 | number of revertant colonies (Mean ± SD) ([2]; TA100, -S9, 30 μg/dish): 100 ± 8.3 | number of revertant colonies (Mean ± SD) ([2]; TA100, -S9, 100 μg/dish): 88 ± 0.6 | number of revertant colonies (Mean ± SD) ([2]; TA100, -S9, 300 μg/dish): 91 ± 18.2 | number of revertant colonies (Mean ± SD) ([2]; TA100, -S9, 1000 μg/dish): 106 ± 17.6 | number of revertant colonies (Mean ± SD) ([2]; TA100, -S9, 3000 μg/dish): 108 ± 6.9 | number of revertant colonies (Mean ± SD) ([2]; TA100, -S9, 5000 μg/dish): 95 ± 7.2 | mutagenic effect on Salmonella typhimurium strain TA98 [3]: no mutagenic effect | number of revertant colonies (Mean ± SD) ([3]; TA98, -S9, 1 μg/dish): 24 ± 5.0 | number of revertant colonies (Mean ± SD) ([3]; TA98, -S9, 3 μg/dish): 23 ± 2.6 | number of revertant colonies (Mean ± SD) ([3]; TA98, -S9, 10 μg/dish): 20 ± 2.3 | number of revertant colonies (Mean ± SD) ([3]; TA98, -S9, 30 μg/dish): 19 ± 1.5 | number of revertant colonies (Mean ± SD) ([3]; TA98, -S9, 100 μg/dish): 15 ± 4.6 | number of revertant colonies (Mean ± SD) ([3]; TA98, -S9, 300 μg/dish): 20 ± 4.2 | number of revertant colonies (Mean ± SD) ([3]; TA98, -S9, 1000 μg/dish): 18 ± 1.5 | number of revertant colonies (Mean ± SD) ([3]; TA98, -S9, 3000 μg/dish): 21 ± 1.5 | number of revertant colonies (Mean ± SD) ([3]; TA98, -S9, 5000 μg/dish): 20 ± 4.9

Cc1nnc(C(C)C)n1C1CC2CCC(C1)N2CC[C@H](NC(=O)C1CCC(F)(F)CC1)c1ccsc1 (stereo partly drawn) [Compound 22, 4,4-difluoro-N-[(1S)-3-[exo-3-(3-isopropyl-5-methyl-4H-1,2,4-triazol-4-yl)-8-azabicyclo[3.2.1]octane-8-yl]-1-(thiophen-3-yl)propyl]cyclohexane-1-carboxamide]
AUC(0-t) [4]: 10900 ng·h/mL | AUC0-t ng/mL * h ([4]; Beagles, gavage, 15 mg/kg): 5426 ng·h/mL | Tmax h ([4]; Beagles, gavage, 15 mg/kg): 0.833 h | t1/2 h ([4]; Beagles, gavage, 15 mg/kg): 3.89 h | CLz ([4]; Beagles, vein, 3 mg/kg): 4.63 mL/min/kg | AUC(0-t) ([4]; male, beagle, dog, plasma, intravenous, 3 mg/kg): 10900 ng·h/mL | AUC(0-inf) [4, 6]: 10900 ng·h/mL | MRT [4, 6]: 1.65 h | half-life [4, 6]: 1.73 h | bioavailability ([4]; male, beagle, dog, plasma, oral): 9.98% | AUC(0-inf) [4, 7]: 5520 ng·h/mL | AUC(0-t) [4, 7]: 5430 ng·h/mL | Cmax [4, 7]: 4610 ng/mL | MRT [4, 7]: 2.11 h | bioavailability [4, 7]: 9.98% | half-life [4, 7]: 3.89 h | Tmax ([4]; male, beagle, dog, plasma, po, 15 mg/kg, Tmax h, Beagles, gavage): 0.833 h | CC50 (HOS-CD4-CCR5 cells): >800 µg/mL | Clinical observations, clinical pathology detection (hematology and serum biochemistry) and macroscopic morphological observation [1]: no significant drug-related changes | weight gain compared with vehicle control group [1]: increased slowly or exhibited negative growth | NOAEL at 4 days [1]: 1000 mg/kg | mutagenic effect on Salmonella typhimurium strain TA100 [2]: no mutagenic effect | number of revertant colonies (Mean ± SD) ([2]; TA100, -S9, 1 μg/dish): 107 ± 16.7 | number of revertant colonies (Mean ± SD) ([2]; TA100, -S9, 3 μg/dish): 109 ± 9.3 | number of revertant colonies (Mean ± SD) ([2]; TA100, -S9, 10 μg/dish): 112 ± 10.7 | number of revertant colonies (Mean ± SD) ([2]; TA100, -S9, 30 μg/dish): 90 ± 11.0 | number of revertant colonies (Mean ± SD) ([2]; TA100, -S9, 100 μg/dish): 97 ± 4.6 | number of revertant colonies (Mean ± SD) ([2]; TA100, -S9, 300 μg/dish): 102 ± 2.9 | number of revertant colonies (Mean ± SD) ([2]; TA100, -S9, 1000 μg/dish): 90 ± 6.5 | number of revertant colonies (Mean ± SD) ([2]; TA100, -S9, 3000 μg/dish): 86 ± 13.1 | number of revertant colonies (Mean ± SD) ([2]; TA100, -S9, 5000 μg/dish): 109 ± 17.5 | mutagenic effect on Salmonella typhimurium strain TA98 [3]: no mutagenic effect | number of revertant colonies (Mean ± SD) ([3]; TA98, -S9, 1 μg/dish): 23 ± 3.2 | number of revertant colonies (Mean ± SD) ([3]; TA98, -S9, 3 μg/dish): 24 ± 3.6 | number of revertant colonies (Mean ± SD) ([3]; TA98, -S9, 10 μg/dish): 23 ± 2.6 | number of revertant colonies (Mean ± SD) ([3]; TA98, -S9, 30 μg/dish): 21 ± 5.2 | number of revertant colonies (Mean ± SD) ([3]; TA98, -S9, 100 μg/dish): 23 ± 6.7 | number of revertant colonies (Mean ± SD) ([3]; TA98, -S9, 300 μg/dish): 23 ± 6.5 | number of revertant colonies (Mean ± SD) ([3]; TA98, -S9, 1000 μg/dish): 19 ± 6.4 | number of revertant colonies (Mean ± SD) ([3]; TA98, -S9, 3000 μg/dish): 22 ± 5.0 | number of revertant colonies (Mean ± SD) ([3]; TA98, -S9, 5000 μg/dish): 25 ± 7.2

Cc1nnc(C(C)C)n1C1CCN(CC[C@H](NC(=O)C2CCCC2)c2cccs2)CC1 [Compound 17, N-[(1S)-3-[4-(3-isopropyl-5-methyl-4H-1,2,4-triazol-4-yl)-piperidin-1-yl]-1-(thiophen-2-yl)propyl]cyclopentane-1-carboxamide]
AUC(0-t) ([5]; intravenous, 10 mg/kg): 374 ng·h/mL | AUC(0-inf) ([5]; iv, 10 mg/kg): 394 ng·h/mL | AUC(0-t) ([5]; iv, 10 mg/kg): 374 ng·h/mL | Cmax ([5]; iv, 10 mg/kg): 246 ng/mL | MRT ([5]; iv, 10 mg/kg): 1.42 h | Tmax ([5]; iv, 10 mg/kg): 0.25 h | bioavailability ([5]; oral): 46.6% | AUC(0-inf) ([5]; po, 20 mg/kg): 364 ng·h/mL | AUC(0-t) ([5]; po, 20 mg/kg): 348 ng·h/mL | Cmax ([5]; po, 20 mg/kg): 122 ng/mL | MRT ([5]; po, 20 mg/kg): 2.31 h | Tmax ([5]; po, 20 mg/kg): 0.5 h | bioavailability ([5]; po, 20 mg/kg): 46.6% | AUC0-t ng/mL * h ([5]; rats, gavage, 20 mg/kg): 347.9 ng·h/mL | CLz ([5]; rats, vein, 10 mg/kg): 423 mL/min/kg

Cc1ccc([C@H](CCN2C3CCC2CC(n2c(C)nnc2C(C)C)C3)NC(=O)C2CCC(F)(F)CC2)s1 (stereo partly drawn) [Compound 29, 4,4-difluoro-N-[(1S)-3-[exo-3-(3-isopropyl-5-methyl-4H-1,2,4-triazol-4-yl)-8-azabicyclo[3.2.1]octane-8-yl]-1-(5-methylthiophen-2-yl)propyl]cyclohexane-1-carboxamide]
CC50 (HOS-CD4-CCR5 cells): >200 µg/mL | CC50 (PBMC cells; PBMC cells (Table 5)): >200 µg/mL | CC50 (PBMC cells; PBMC cells (Table 6)): >200 µg/mL
